In patent publication US20120196933A1, “MEXILETINE PRODRUGS” (priority 2010, published 2012):
Several values for one entry are separate records, joined by “and”; a condition that tells them apart may be missing. Equal entries are not always repeated. Where two headings read alike, the source gives them in different places. Marks after values point to notes of the source that are not given here.

Columns and labels:
[1] = tested on: patients; conditions: cited from earlier work
[2] = tested on: ferret; experiment: Emetic effects following oral administration to the ferret; assay type: in vivo; conditions: oral 20 mg/kg mexiletine HCl or molar equivalent, individual animals
Text: Male ferrets (n=7) were allowed free access to pelleted diet until late afternoon on the day prior to the day of each test. The food was then removed and the ferrets were starved overnight. Food was not returned until after completion of the emetic observation.

[3] = Systemic availability of mexiletine in the cynomolgus monkey from mexiletine prodrugs (oral gavage); assay type: in vivo; conditions: 1 mg/kg mexiletine free base, plasma mexiletine
Experimental: Test substances (i.e., mexiletine, and various mexiletine amino acid prodrugs) were administered by oral gavage to groups of two and, in one case, five male cynomolgus monkeys. Blood samples were taken at various times after administration and submitted to analysis for the parent drug using a validated LC-MS-MS assay. Pharmacokinetic parameters derived from the plasma bioanalytical data were determined using Win Nonlin.

[4] = Systemic availability of mexiletine in the dog from mexiletine prodrugs (oral gavage); assay type: in vivo; conditions: 1 mg/kg mexiletine free base
Experimental: Test substances (i.e., mexiletine, and various mexiletine amino acid prodrugs) were administered by oral gavage to groups of two or some cases five dogs. The characteristics of the test animals are set out in Table 6.
Blood samples were taken at various times after administration and submitted to analysis for parent drug using a validated LC-MS-MS assay. Pharmacokinetic parameters derived from the plasma bioanalytical data were determined using Win Nonlin.

[5] = tested on: rabbit stomach smooth muscle; experiment: Electrical field stimulated contractions of isolated rabbit stomach smooth muscle; assay type: cell-based; conditions: read-out: ED50 for attenuation of EFS induced contractions
[6] = In vitro stability of mexiletine prodrugs under conditions prevailing in the gut; assay type: physicochemical; conditions: 0.1M phosphate buffer pH 7.4, 2 h
[7] = as above; assay type: physicochemical; conditions: HPLC; for Simulated gastric fluid (pH 1.1): % remaining after 2 h/37° C.: simulated gastric fluid pH 1.1, 2 h; for Simulated intestinal fluid (pH 6.8): % remaining after 2 h/37° C.: simulated intestinal fluid pH 6.8, 2 h
Experimental: To investigate if the prodrugs of the present invention are stable in conditions mimicking the gut, various mexiletine amino acid prodrugs were incubated at 37° C. in simulated gastric and simulated intestinal juice (USP defined composition) for 2 hours. The remaining concentrations of the prodrug were then assayed by HPLC.

[8] = tested on: patients with myotonic disorders; conditions: 1200 mg daily tocamide or 600 mg daily mexiletine, three divided doses; cited from earlier work
[9] = tested on: ADR mouse; experiment: Anti-myotonic effects in the ADR mouse (righting response); assay type: in vivo; conditions: oral 5 mg/kg
Experimental: The effects of oral administration of either mexiletine glutamic acid amide at 5, 10 or 20 mg/kg or mexiletine 5 mg/kg on the righting response of a group of three adr/adr mice were examined on three separate days. Each assessment involved placing the individual mice on their back no fewer than seven successive occasions in rapid succession and determining the time to successful righting at various time pre and post dosing (−10, +15, +30, +60, +120 & +180 mins).

[10] = tested on: 9-AC induced myotonia in the rat; experiment: Anti-myotonic effects in 9-anthracene carboxylic acid (9-AC) treated rats (righting time); assay type: in vivo; conditions: for Mean ± SEM righting response time: 9-AC 30 mg/kg ip
Experimental: The use of ip injection of 9-anthracene carboxylic acid is known to induce a myotonic state in rats which can then be used to assess the activity of potential anti-myotonic compounds (Villegas-NavarroA et al (1992) Exp. Toxicol. Pathol. 44 34-39).
Groups of four rats were predosed with 30 mg/kg 9-AC (time 0) and ten minutes later their righting time was assessed repeatedly seven times in rapid succession. They were then dosed po with mexiletine or mexiletine glutamic acid amide at 1, 5, 10, 20 or 40 mg/kg and the righting time reassessed at ˜30, 60, 120 and 180 minutes after 9-AC injection. At each dose level, a group of four control animals, given vehicle alone, was used

[11] = tested on: patients with myotonic dystrophy (type 1); conditions: 150 tid or 200 mg tid, 7 weeks; cited from earlier work
[12] = tested on: sodium channel; conditions: relative to mexiletine; cited from earlier work
[13] = listed as Mexiletine lysine amide

CC(C)C[C@H](CN)CC(=O)O [pregabalin]
Patients with dizziness and somnolence ([1]; patients treated at the higher doses): up to 30%

Cc1cccc(C)c1OCC(C)NC(=O)CN.O=C(O)C(F)(F)F (racemic) [Mexiletine glycine amide, Glycine-(rac)-mexiletine Trifluoroacetate]
Total number of individual incidences of retching ([2]; 2 h observation): 20 (2×) and 2 (2×) and 12 and 0 and 10 | Total number of individual incidences of vomiting ([2]; 2 h observation): 5 and 1 (2×) and 2 and 0 (2×) and 3 | Time to onset of retching [2]: 15 min (2×) and 13 min (2×) and 11 min and >120 min and 10 min | Time to onset of vomiting [2]: 17 min and 13 min (2×) and 11 min and >120 min (2×) and 15 min | T50% Cmax [3]: 3.71** h | T50% Cmax ([4]; plasma mexiletine): 5.5** h | EC50 ([5]; Oryctolagus cuniculus, rabbit stomach antrum strips, EFS 14 Hz): 9.16 µM | pH 7.4, 37° C. 0.1M phosphate buffer: % remaining after 2 h/37° C. [6]: 99.9% | Simulated gastric fluid (pH 1.1): % remaining after 2 h/37° C. [7]: 99.8% | Simulated intestinal fluid (pH 6.8): % remaining after 2 h/37° C. [7]: 99.8%

Cc1cccc(C)c1OCC(C)NC(=O)[C@@H](N)CCCCN.O=C(O)C(F)(F)F.O=C(O)C(F)(F)F (mixture of isomers) [Mexiletine (S)-lysine amide, (Rac)-Mexiletine-(S)-Lysine Ditrifluoroacetate]
AUC of mexiletine ([4]; plasma mexiletine): 301** ng · h/mL | Cmax of mexiletine ([4]; plasma mexiletine): 54.4** ng/mL | T50% Cmax ([4]; plasma mexiletine): 5.0** h | F(rel) ([4]; relative to mexiletine): 28.0** % | EC50 ([5]; rabbit stomach antrum strips, EFS 14 Hz): 21.8 µM | pH 7.4, 37° C. 0.1M phosphate buffer: % remaining after 2 h/37° C. [6]: 100% | Simulated gastric fluid (pH 1.1): % remaining after 2 h/37° C. [7, 13]: 99.8% and 100% | Simulated intestinal fluid (pH 6.8): % remaining after 2 h/37° C. [7, 13]: 80.8% and 100%

Cc1cccc(C)c1OCC(C)N.Cl (racemic) [Mexiletine hydrochloride, (rac)-1-(2,6-dimethylphenoxy)-2-propanamine hydrochloride]
Increase in the speed of stair step movement [8]: 2.8 fold | Reduction in the time taken for eye opening [8]: 6 fold | Reduction of hand opening time [8]: 6.9 fold | Effects on righting time [9]: marginal | Mean ± SEM righting response time ([9]; +15 mins): 7.80 ± 3.72 s | Mean ± SEM righting response time ([9]; +30 mins): 9.53 ± 5.07 s | Mean ± SEM righting response time ([9]; +60 mins): 10.5 ± 3.68 s | Mean ± SEM righting response time ([9]; +120 mins): 12.5 ± 4.98 s | Mean ± SEM righting response time ([9]; +180 mins): 12.5 ± 4.27 s | Mean ± SEM righting response time ([9]; −10 mins (pre dosing)): 7.94 ± 1.25 s | EC50 ([5]; Oryctolagus cuniculus): 2.17 µM | Coefficient of variation of the response ([10]; 10 mg/kg (same molar dose level), time of maximal effect of 9-AC (+30 mins)): 96% | Mean ± SEM righting response time ([10]; drug 1 mg/kg po, 9-AC +10 mins (predrug)): 1.96 ± 0.193 s | Mean ± SEM righting response time ([10]; drug 1 mg/kg po, 9-AC +30 mins): 2.94 ± 0.490 s | Mean ± SEM righting response time ([10]; drug 1 mg/kg po, 9-AC +60 mins): 1.73 ± 0.165 s | Mean ± SEM righting response time ([10]; drug 1 mg/kg po, 9-AC +120 mins): 1.17 ± 0.124 s | Mean ± SEM righting response time ([10]; drug 1 mg/kg po, 9-AC +180 mins): 0.831 ± 0.169 s | Mean ± SEM righting response time ([10]; drug 5 mg/kg po, 9-AC +10 mins (predrug)): 2.36 ± 0.208 s | Mean ± SEM righting response time ([10]; drug 5 mg/kg po, 9-AC +30 mins): 2.21 ± 0.153 s | Mean ± SEM righting response time ([10]; drug 5 mg/kg po, 9-AC +60 mins): 2.34 ± 0.386 s | Mean ± SEM righting response time ([10]; drug 5 mg/kg po, 9-AC +120 mins): 1.33 ± 0.194 s | Mean ± SEM righting response time ([10]; drug 5 mg/kg po, 9-AC +180 mins): 0.980 ± 0.220 s | Mean ± SEM righting response time ([10]; drug 10 mg/kg po, 9-AC +10 mins (predrug)): 2.26 ± 0.195 s | Mean ± SEM righting response time ([10]; drug 10 mg/kg po, 9-AC +30 mins): 3.28 ± 1.58 s | Mean ± SEM righting response time ([10]; drug 10 mg/kg po, 9-AC +60 mins): 2.28 ± 0.347 s | Mean ± SEM righting response time ([10]; drug 10 mg/kg po, 9-AC +120 mins): 1.41 ± 0.190 s | Mean ± SEM righting response time ([10]; drug 20 mg/kg po, 9-AC +10 mins (predrug)): 2.27 ± 0.260 s | Mean ± SEM righting response time ([10]; drug 20 mg/kg po, 9-AC +60 mins): 1.43 ± 0.294 s | Mean ± SEM righting response time ([10]; drug 20 mg/kg po, 9-AC +120 mins): 0.949 ± 0.131 s | Mean ± SEM righting response time ([10]; drug 40 mg/kg po, 9-AC +10 mins (predrug)): 2.61 ± 0.088 s | Mean ± SEM righting response time ([10]; drug 40 mg/kg po, 9-AC +60 mins): 0.913 ± 0.0507 s | Mean ± SEM righting response time ([10]; drug 40 mg/kg po, 9-AC +120 mins): 0.746 ± 0.0699 s | Mean ± SEM righting response time ([10]; drug 40 mg/kg po, 9-AC +180 mins): 0.583 ± 0.0606 s | Reduction in grip relaxation time [11]: 2 fold

CNCC[C@H](Oc1cccc2ccccc12)c1cccs1 [Duloxetine, duloxetine]
Treated patients with nausea ([1]; treated patients): 20-40%

Cc1cc(O)cc(C)c1OCC(C)N (stereo not shown) [Para-hydroxymexiletine]
Sodium channel inhibitory activity retained relative to the parent molecule [12]: around 25%
